Experimental data as given in publication PMC12197363 (Viruses, 2025).
Where two headings read alike, the source gives them in different places.

Experiments:
[1] = target: T1, Norovirus 3CL^pro (Norovirus GII.4, UniProt P54634); experiment: Cell-based FlipGFP assay of 3CLpro inhibition; set-up: species or system Norovirus genotype GII.4
T1 sequence (P54634 1009-1189): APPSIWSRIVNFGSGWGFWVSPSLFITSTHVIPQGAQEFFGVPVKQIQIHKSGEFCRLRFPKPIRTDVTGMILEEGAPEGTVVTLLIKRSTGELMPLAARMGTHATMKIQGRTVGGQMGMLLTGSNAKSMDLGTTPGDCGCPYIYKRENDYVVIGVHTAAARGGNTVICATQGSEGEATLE

[2] = tested on: Norovirus 3CL^pro; experiment: Western blot of FlipGFP cleavage; type: cell-based; conditions: at higher inhibitor concentrations, compared with C139A control
[3] = tested on: c-Met; conditions: quoted in Description column of Table S1; no reference given; cited from earlier work
[4] = tested on: VEGFR2; conditions: quoted in Description column of Table S1; no reference given; cited from earlier work

Row | SMILES | IC50 [1] | further results
1 | O=c1[nH]c2ccccc2n1C1CCN(Cc2ccc(-c3[nH]c4cc5ncnc5cc4nc3-c3ccccc3)cc2)CC1 [Akt inhibitor VIII] | 0.59 ± 0.12 µM | –
2 | N#Cc1ccc(O[C@H]2CC[C@H](NC(=O)c3ccc(N4CCC(CN5CCN(c6cc7c(cc6F)C(=O)N(C6CCC(=O)NC6=O)C7=O)CC5)CC4)nn3)CC2)cc1Cl (some centres unmarked) [Bavdegalutamide] | 0.97 ± 0.24 µM | –
3 | O=C(Nc1cccc(-c2nc(-c3ccc(NC(=O)c4cccnc4)cc3Cl)no2)c1)Nc1ccc(NC(=O)C2CC2)c(C(F)(F)F)c1 [EGFR-IN-8] | 0.29 ± 0.09 µM | Proteolytic cleavage of FlipGFP (Western blot) [2]: proteolytic cleavage was markedly reduced
4 | CC(C)C[C@H](NC(=O)OCc1ccccc1)C(=O)N[C@@H](CC1CCNC1=O)C(O)S(=O)(=O)O (some centres unmarked) [GC376] | – | IC50 ([1]; HEK293T cells co-transfected with 3CLpro-FlipGFP and 3CLpro, compound added 6 h, fluorescence read 24 h post-transfection, triplicate, read-out: IC50): 2.28 ± 0.17 µM
5 | CCc1cc(Nc2nccc(-c3c(-c4ccc(OC)c(C(=O)Nc5c(F)cccc5F)c4)nc4ccccn34)n2)c(OC)cc1N1CCC(N2CCN(S(C)(=O)=O)CC2)CC1 [GSK1904529A] | 3.94 ± 0.23 µM | –
6 | CN(C)C1CCN(C(=O)c2ccc(NC(=O)Nc3ccc(-c4nc(N5CCOCC5)nc(N5CCOCC5)n4)cc3)cc2)CC1 [Gedatolisib] | – | Proteolytic cleavage of FlipGFP (Western blot) [2]: proteolytic cleavage was markedly reduced
7 | CN1CCN(C2CCN(C(=O)Nc3cc(Oc4ccc(NC(=O)C5(C(=O)Nc6ccc(F)cc6)CC5)c(F)c4)ccn3)CC2)CC1 [Golvatinib] | – | IC50 [3]: 0.014 µM; IC50 [4]: 0.016 µM
8 | O=C(c1ccc(Nc2nccc(-c3cc4ccccc4s3)n2)cc1)N1CCC(N2CCCC2)CC1 [IKK 16] | 5.09 ± 0.16 µM | –
9 | CC(=O)N1CCC(c2cc(-c3ccc(NC(=O)c4cccn(-c5ccc(F)cc5)c4=O)cc3F)c3c(N)ncnn23)CC1 [TAM-IN-2] | 1.22 ± 0.44 µM | –
